How the values were obtained:
[1] = biological target: T1, HLA-A*0301 (Homo sapiens, UniProt P04439); experiment: HLA class I-peptide stability assay in TAP-deficient HLA-A*0301 mono-allelic cells; assay type: cell-based
T1 construct: expressed in transfected cells; host or cells: TAP-deficient (CRISPR/Cas9) HLA-A*0301 mono-allelic 721.221 human B cells

[2] = test system: HLA class I alleles; assay type: cell-based, human

With KGIYQTSNFR [A3 COVID 15] the “HLA-A*0301 stabilization” value [1] was “HLA stabilizing”.
MIAQYTSAL [B7 COVID 16] was tested, and the “stabilization of HLA class I alleles” value [2] was “stabilized a number of HLA class I alleles”.
For NPLLYDANYFL [B81 COVID 14], the “50% Experimental Binder” value [2] was “YES”.
With RVIHFGAGSDK [A3 COVID 3] the “HLA-A*0301 stabilization” value [1] was “HLA stabilizing”.
YQDVNCTEV [B39 COVID 11] was tested, and the “50% Experimental Binder” value [2] was “YES”.

Source: patent publication US20230302083A1, “HIGHLY-NETWORKED C[…] COMPOSITION” (priority 2020, published 2023)
